Results: US7935722B2 (Eli Lilly and Company, priority 2005, dated 2011)

Tests used:
[1] = target: T1, human androgen receptor (AR) (Homo sapiens, UniProt P10275); test: C2C12 AR/ARE reporter assay; assay type: cell-based
T1 construct: expressed in transfected cells; host or cells: mouse myoblast C2C12 cells, transiently co-transfected
T1 sequence (P10275 1-920): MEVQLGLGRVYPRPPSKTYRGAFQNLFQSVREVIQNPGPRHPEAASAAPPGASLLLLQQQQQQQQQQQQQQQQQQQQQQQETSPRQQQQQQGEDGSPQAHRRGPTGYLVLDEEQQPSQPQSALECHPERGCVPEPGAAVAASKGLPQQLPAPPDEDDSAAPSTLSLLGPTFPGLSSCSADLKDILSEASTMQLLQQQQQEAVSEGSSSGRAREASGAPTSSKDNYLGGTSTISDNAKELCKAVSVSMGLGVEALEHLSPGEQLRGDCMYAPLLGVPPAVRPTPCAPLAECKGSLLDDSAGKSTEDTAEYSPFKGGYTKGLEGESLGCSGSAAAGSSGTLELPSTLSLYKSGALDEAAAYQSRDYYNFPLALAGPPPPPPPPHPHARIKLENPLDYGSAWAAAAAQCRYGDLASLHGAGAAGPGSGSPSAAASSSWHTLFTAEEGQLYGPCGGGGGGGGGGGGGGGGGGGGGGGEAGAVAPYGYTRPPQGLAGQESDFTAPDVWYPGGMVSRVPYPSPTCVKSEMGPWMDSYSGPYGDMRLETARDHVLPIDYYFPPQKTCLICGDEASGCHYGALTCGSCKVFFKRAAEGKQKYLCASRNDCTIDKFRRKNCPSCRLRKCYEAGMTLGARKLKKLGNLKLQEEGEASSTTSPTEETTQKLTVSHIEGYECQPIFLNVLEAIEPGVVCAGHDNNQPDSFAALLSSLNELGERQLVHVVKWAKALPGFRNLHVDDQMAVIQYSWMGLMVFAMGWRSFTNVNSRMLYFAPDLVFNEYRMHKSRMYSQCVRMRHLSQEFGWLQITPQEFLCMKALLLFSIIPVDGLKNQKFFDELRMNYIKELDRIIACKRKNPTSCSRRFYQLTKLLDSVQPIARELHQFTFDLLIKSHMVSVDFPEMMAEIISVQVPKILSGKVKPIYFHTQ
In short: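 Mouse C2C12 myoblasts co-transfected with AR/ARE reporter were plated in charcoal-stripped serum and treated for 48 h with compound from about 0.01 nM to 10 μM. Luciferase activity gave EC50 by 4-parameter logistic fit. Efficacy is expressed as % of maximal stimulation by 10 nM methyltrienolone.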

[2] = target: T2, human AR (androgen receptor) (Homo sapiens, UniProt P10275); test: Steroid hormone nuclear receptor binding assay, AR binding
T2 construct: expressed in transfected cells; host or cells: 293 cells (293-AR lysate)
T2 sequence (P10275 1-920): T1 sequence (P10275 1-920)
In short: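 Competition binding with lysates of 293 cells overexpressing human AR, [3H]-methyltrienolone tracer, compounds from about 0.01 nM to 10 μM, overnight at 4 °C; non-specific binding set with 500 nM methyltrienolone. Bound tracer counted by scintillation after charcoal-dextran separation; IC50 converted to Ki by Cheng-Prusoff using Kd from saturation binding.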

## CC(C)C(=O)NC1CCc2c(c3cc(C#N)ccc3n2Cc2ncccc2F)C1 (stereo not shown) [Example 182, N-[6-Cyano-9-(3-fluoro-pyridin-2-ylmethyl)-2,3,4,9-tetrahydro-1H-carbazol-3-yl]-isobutyramide]
[1]
  EC50: 151 nM
[1]; C2C12, read-out: C2C12 % Efficacy
  Emax: 88.7%
[2]
  Ki: 28.4 nM
other
  melting point: 213 to 216 °C
